PMC8070004, “Isorhamnetin Ameliorates Dry Eye Disease via CFTR Activation in Mice” (International Journal of Molecular Sciences, 2021)

Columns and labels:
CD-1 mice = test: Tear volume by phenol red thread tear test in normal CD-1 mice; format: in vivo, mouse; settings: isorhamnetin 30 µM with CFTRinh-172 20 µM
Procedure: Tear volume was measured using phenol red threads (Zone-Quick, Oasis Medical, Glendora, CA, USA) by placing them in the lateral canthi of normal CD-1 or dry eye model-treated BL6 mice for 10 s using forceps. Tear volume was measured using a Vernier caliper as the length of thread wetting under a microscope. For normal CD-1 mice, serial measurements were done to evaluate compound pharmacodynamics compared to the vehicle after topical application of a single, 2.5-μL drop of compound formulations containing 20 μM forskolin, 30 μM isorhamnetin, or 20 μM CFTRinh-172 in PBS with 0.1% DMSO.

CFTR = target: T1, CFTR (Mus musculus, UniProt P26361); test: Open-circuit ocular surface potential difference (PD) in CD-1 mice; format: in vivo; settings: 20 μM CFTRinh-172
T1 construct: from tissue; host or cells: ocular surface of anesthetized CD-1 mice (in vivo)
T1 sequence (P26361 whole entry): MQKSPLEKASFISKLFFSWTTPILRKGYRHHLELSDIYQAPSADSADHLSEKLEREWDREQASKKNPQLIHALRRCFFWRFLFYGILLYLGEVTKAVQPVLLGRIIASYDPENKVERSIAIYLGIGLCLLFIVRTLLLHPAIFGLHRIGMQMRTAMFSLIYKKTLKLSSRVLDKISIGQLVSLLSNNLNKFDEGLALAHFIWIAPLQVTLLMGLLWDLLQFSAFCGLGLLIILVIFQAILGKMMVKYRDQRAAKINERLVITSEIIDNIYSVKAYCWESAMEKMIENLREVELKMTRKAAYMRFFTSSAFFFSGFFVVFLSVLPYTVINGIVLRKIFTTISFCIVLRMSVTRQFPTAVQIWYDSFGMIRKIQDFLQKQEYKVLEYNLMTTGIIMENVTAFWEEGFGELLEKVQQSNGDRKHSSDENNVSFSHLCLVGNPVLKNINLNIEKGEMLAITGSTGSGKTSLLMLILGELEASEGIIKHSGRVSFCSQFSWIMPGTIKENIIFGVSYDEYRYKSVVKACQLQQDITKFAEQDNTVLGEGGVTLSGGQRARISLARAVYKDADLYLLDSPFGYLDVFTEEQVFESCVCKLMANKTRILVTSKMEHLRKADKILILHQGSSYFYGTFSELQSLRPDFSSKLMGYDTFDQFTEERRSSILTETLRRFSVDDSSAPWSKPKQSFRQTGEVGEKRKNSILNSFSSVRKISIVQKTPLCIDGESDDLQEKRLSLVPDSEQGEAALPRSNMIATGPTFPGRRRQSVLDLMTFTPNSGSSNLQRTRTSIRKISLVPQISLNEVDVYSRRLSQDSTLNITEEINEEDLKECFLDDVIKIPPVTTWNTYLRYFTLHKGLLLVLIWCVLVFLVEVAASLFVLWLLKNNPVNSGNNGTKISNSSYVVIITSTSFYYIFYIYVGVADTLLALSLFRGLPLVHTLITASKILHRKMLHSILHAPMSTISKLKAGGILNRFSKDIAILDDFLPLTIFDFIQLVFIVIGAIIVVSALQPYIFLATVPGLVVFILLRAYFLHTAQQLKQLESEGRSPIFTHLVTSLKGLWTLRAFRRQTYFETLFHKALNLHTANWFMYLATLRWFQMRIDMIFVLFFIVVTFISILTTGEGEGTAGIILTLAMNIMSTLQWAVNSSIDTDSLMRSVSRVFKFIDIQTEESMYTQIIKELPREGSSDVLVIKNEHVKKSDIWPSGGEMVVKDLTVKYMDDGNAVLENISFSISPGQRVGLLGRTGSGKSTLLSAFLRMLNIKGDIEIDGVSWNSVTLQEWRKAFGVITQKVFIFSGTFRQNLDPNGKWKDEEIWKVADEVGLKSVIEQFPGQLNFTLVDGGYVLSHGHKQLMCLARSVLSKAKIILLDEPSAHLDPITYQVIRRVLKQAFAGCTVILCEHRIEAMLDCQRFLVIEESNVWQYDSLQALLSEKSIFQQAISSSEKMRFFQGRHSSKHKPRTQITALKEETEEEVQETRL

WT-CFTR = WT-CFTR (Homo sapiens, UniProt P13569); test: Whole-cell patch clamp in CHO-K1 cells expressing WT-CFTR; format: cell-based; design: expressed in transfected cells; host or cells: CHO-K1; settings: 10 μM CFTRinh-172
WT-CFTR, sequence (P13569 whole entry): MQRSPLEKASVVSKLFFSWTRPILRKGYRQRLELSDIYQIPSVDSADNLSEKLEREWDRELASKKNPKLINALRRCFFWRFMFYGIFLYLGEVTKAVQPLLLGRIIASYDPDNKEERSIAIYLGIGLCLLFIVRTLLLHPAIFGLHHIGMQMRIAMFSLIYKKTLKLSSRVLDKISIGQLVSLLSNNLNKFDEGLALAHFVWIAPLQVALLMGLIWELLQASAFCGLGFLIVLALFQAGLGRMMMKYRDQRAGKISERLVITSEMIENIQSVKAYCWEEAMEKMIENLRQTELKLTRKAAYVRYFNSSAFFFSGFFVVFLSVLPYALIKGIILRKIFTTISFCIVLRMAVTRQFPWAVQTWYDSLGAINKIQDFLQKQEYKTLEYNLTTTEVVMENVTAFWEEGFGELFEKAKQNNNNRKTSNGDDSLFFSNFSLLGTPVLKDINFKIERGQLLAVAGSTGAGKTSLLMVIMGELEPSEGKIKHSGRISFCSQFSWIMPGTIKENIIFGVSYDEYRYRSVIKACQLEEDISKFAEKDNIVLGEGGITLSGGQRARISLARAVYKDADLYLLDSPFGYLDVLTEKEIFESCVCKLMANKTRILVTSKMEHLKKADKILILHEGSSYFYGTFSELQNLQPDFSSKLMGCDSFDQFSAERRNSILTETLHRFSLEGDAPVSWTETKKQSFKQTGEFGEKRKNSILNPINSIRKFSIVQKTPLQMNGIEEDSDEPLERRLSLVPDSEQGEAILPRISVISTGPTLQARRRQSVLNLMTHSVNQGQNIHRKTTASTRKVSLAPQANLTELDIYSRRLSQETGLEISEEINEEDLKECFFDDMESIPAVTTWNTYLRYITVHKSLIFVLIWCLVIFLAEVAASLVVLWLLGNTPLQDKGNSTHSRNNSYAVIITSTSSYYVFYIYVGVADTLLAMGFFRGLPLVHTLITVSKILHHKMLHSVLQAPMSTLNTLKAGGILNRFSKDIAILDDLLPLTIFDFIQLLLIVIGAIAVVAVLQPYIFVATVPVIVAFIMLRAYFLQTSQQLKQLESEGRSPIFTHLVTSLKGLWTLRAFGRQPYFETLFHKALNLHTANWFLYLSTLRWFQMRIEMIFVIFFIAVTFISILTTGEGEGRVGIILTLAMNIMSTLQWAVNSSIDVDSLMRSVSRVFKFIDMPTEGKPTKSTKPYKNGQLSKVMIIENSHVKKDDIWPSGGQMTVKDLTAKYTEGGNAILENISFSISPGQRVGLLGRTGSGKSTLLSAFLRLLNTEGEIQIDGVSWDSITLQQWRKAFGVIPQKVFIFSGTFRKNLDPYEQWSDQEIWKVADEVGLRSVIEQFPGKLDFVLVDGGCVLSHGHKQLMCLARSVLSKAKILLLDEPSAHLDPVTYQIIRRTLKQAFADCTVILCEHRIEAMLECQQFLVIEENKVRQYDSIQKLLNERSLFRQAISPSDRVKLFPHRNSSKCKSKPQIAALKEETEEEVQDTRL
Procedure: Whole-cell, patch clamp recordings were performed on CFTR-expressing CHO cells. The bath solution contained (in mM) 140 NMDG-Cl, 1 CaCl2, 1 MgCl2, 10 glucose, and 10 HEPES (pH 7.4). The pipette solution contained (in mM) 130 CsCl, 0.5 EGTA, 1 MgCl2, 1 Tris-ATP, and 10 HEPES (pH 7.2). […] Seal resistances were between 3 and 10 GΩ. After establishing the whole-cell configuration, CFTR was activated by forskolin and/or isorhamnetin. […] Recordings were made at room temperature using an Axopatch-200B (Axon Instruments, San Jose, CA, USA). Currents were digitized with a Digidata 1440A converter (Axon Instruments), filtered at 5 kHz, and sampled at 1 kHz.

[1] = test system: conjunctival epithelial (ConjE) cells; test: MTS cell viability assay in ConjE cells; format: cell-based, human; settings: 48 h; isorhamnetin 30 μM, Triton X-100 0.01%
Procedure: (§1) Immortalized human CorE [47] and immortalized human ConjE (Innoprot, Bizkaia, Spain) cells were plated on 96-well microplates. After 24 h incubation, cells were treated with 30 μM isorhamnetin or 0.01% Triton X-100 and then they were incubated for two days. An equal amount of DMSO was added to the control. The culture medium and the compounds were changed every 12 h. To assess cell proliferation, after 48 h of incubation with the compound, the cells were reincubated with MTS for 1 h. The soluble formazan produced by cellular reduction of MTS was quantified by measuring the absorbance at 490 nm with Infinite M200 (Tecan, Grödig, Austria) microplate reader. MTS assay was done using CellTiter 96 AQueous One Solution Cell Proliferation Assay kit (Promega, Madison, WI, USA).

[2] = test system: corneal epithelial (CorE) cells; test: MTS cell viability assay in CorE cells; format: cell-based, human; settings: 48 h; isorhamnetin 30 μM, Triton X-100 0.01%
Procedure: as §1

isorhamnetin-induced hyperpolarization of ocular PD (CFTR)	block of isorhamnetin-induced CFTR Cl- currents (whole-cell) (WT-CFTR)	Molecule	isorhamnetin-increased tear volume (CD-1 mice)	cell viability (MTS), ConjE cells [1]	cell viability (MTS), CorE cells [2]
inhibited	almost completely blocked	O=C(O)c1ccc(/C=C2\SC(=S)N(c3cccc(C(F)(F)F)c3)C2=O)cc1 [CFTRinh-172, reference compound]	completely suppressed		
		Triton X-100 [reference compound]		markedly decreased cell viability	markedly decreased cell viability
